Assays:
GFP-HER2-BM cells = experiment: Cell viability assay (CellTiter 96 / MTT), GFP-HER2-BM; format: cell-based; conditions: Homo sapiens, 120 h
Description: Effect of MBQ-167 on cell survival.

[1] = test system: GFP-HER2-BM mammary fat pad tumors; experiment: Mammary fat pad tumor growth, GFP-HER2-BM cells in nude mice; format: in vivo; conditions: for reduction in tumor growth: 65 days; for Optimal % Change in Tumor Size (% T/C): day 65, control = 100; for Time in Days for Doubling of Tumor size, 2^1: control 8; for Time in Days for Doubling of Tumor size, 2^2: control 14.5; for Time in Days for Doubling of Tumor size, 2^3: control 27.7; for Time in Days for Doubling of Tumor size, 2^4: control 33.3
Procedure: FIGS. 6A-1, 6A-2, 6B, 6C, 6D, 6E. In-vivo efficacy of MBQ-167 in HER2-type breast cancer.
To test the effect of MBQ-167 on mammary tumor progression, nude mice were used to establish mammary fatpad tumors from GFP-HER2-BM cells. One week following mammary tumor establishment, the mice were treated 3× a week with 0, 1, or 10 mg/kg BW MBQ-167 by i.p. for 65 days.
Mice were treated with vehicle (12.5% ethanol, 12.5% Cremophor (Sigma-Aldrich, St. Louis, Mo.), and 75% 1×PBS pH 7.4), or 1 or 10 mg/kg BW MBQ-167 by i.p. injection in a 100 μL volume 3× a wk. Treatments continued until sacrifice at day 65.

[2] = test system: p38-MAPK, p42/44 MAPK, Akt; experiment: Western blot of MAPK and Akt signaling, MDA-MB-231; format: cell-based, human; conditions: 250 nM, 24 h
Description: FIGS. 13A, 13B. MAPK and Akt signaling in MDA-MB-231 cells. […] Representative western blots of N=3 are shown.

Rac = Rac activation pulldown (p21-binding domain of PAK) and western blot, MDA-MB-231 cells; format: cell-based, human; conditions: for decrease in Rac activation: 250 nM, 24 h; for inhibition in Rac activity: 250 or 500 nM, 6 h

CCn1c2ccccc2c2cc(-n3nncc3-c3ccccc3)ccc21 [I-1, 9-ethyl-3-(5-phenyl-1H-1,2,3-triazol-1-yl)-9H-carbazole]
GI50 (GFP-HER2-BM cells): 150 nM
reduction in tumor growth ([1]; 1.0 mg/kg BW i.p. 3x a week): ~80%
Optimal % Change in Tumor Size (% T/C) ([1]; 1 mg/kg BW i.p. 3x a week): 58%
Time in Days for Doubling of Tumor size, 2^1 ([1]; 1 mg/kg BW): 10 days
Time in Days for Doubling of Tumor size, 2^2 ([1]; 1 mg/kg BW): 30 days
Time in Days for Doubling of Tumor size, 2^3 ([1]; 1 mg/kg BW): 57 days
Time in Days for Doubling of Tumor size, 2^4 ([1]; 1 mg/kg BW): never reached
reduction in tumor growth ([1]; 10 mg/kg BW i.p. 3x a week): ~95%
Optimal % Change in Tumor Size (% T/C) ([1]; 10 mg/kg BW i.p. 3x a week): 9%
reduction of mammary fat pad tumor size ([1]; 10 mg/kg BW, by 2 months): 91%
Time in Days for Doubling of Tumor size, 2^1 ([1]; 10 mg/kg BW): 11 days
Time in Days for Doubling of Tumor size, 2^2 ([1]; 10 mg/kg BW): 30 days
Time in Days for Doubling of Tumor size, 2^3 ([1]; 10 mg/kg BW): never reached
Time in Days for Doubling of Tumor size, 2^4 ([1]; 10 mg/kg BW): never reached
inhibition of mammary tumor growth and metastasis ([1]; immunocompromised mice): ~90%
effect on p38-MAPK, p42/44 MAPK and Akt activities [2]: did not affect
decrease in Rac activation (Rac; attached cells): ~25%
decrease in Rac activation (Rac; detached cells): ~75%
inhibition in Rac activity (Rac; attached cell population): 10-20%
inhibition in Rac activity (Rac; detached population): 40-50%
